# Measured values as given in PubChem BioAssay (NCI).
#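 Compound exposure: 48 hours, 5 concentrations, 96-well plates. The concentration for full growth arrest is given as TGI.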
# Key:
# Assay in all cases: NCI-60 cell line screen, 48 h
# COLO 205 colon = test system: COLO 205 colon
# SW-620 colon = test system: SW-620 colon
# MDA-N = test system: MDA-N
# RPMI-8226 leukemia = test system: RPMI-8226 leukemia
# IGROV1 ovarian = test system: IGROV1 ovarian
# M14 melanoma = test system: M14 melanoma
# NCI-H460 lung = test system: NCI-H460 lung
# MDA-MB-435 = test system: MDA-MB-435
# T-47D breast = test system: T-47D breast
# HOP-92 NSCLC = test system: HOP-92 NSCLC
# A498 renal = test system: A498 renal
# HCT-15 colon = test system: HCT-15 colon
# SF-268 CNS = test system: SF-268 CNS
# SN12C renal = test system: SN12C renal
# HCC-2998 colon = test system: HCC-2998 colon
# MOLT-4 leukemia = test system: MOLT-4 leukemia
SMILES,TGI (COLO 205 colon) [µM],TGI (SW-620 colon) [µM],TGI (MDA-N) [µM],TGI (RPMI-8226 leukemia) [µM],TGI (IGROV1 ovarian) [µM],TGI (M14 melanoma) [µM],TGI (NCI-H460 lung) [µM],TGI (MDA-MB-435) [µM],TGI (T-47D breast) [µM],TGI (HOP-92 NSCLC) [µM],TGI (A498 renal) [µM],TGI (HCT-15 colon) [µM],TGI (SF-268 CNS) [µM],TGI (SN12C renal) [µM],TGI (HCC-2998 colon) [µM],TGI (MOLT-4 leukemia) [µM]
OC1[C@H](O)CN(OCc2ccccc2)C[C@@H]1O (stereo partly drawn),> 100,> 100,> 100,> 100,> 100,> 100,> 100,> 100,> 100,> 100,> 100,> 100,> 100,> 100,> 100,> 100
Nc1ccc(CCSSCCc2ccc(N)cc2)cc1,> 100,> 76.8,> 79.6,> 81.8,> 100,> 74.2,86.8,> 86.9,> 92.3,> 100,> 94.7,> 67.9,45.2,60.1,34.4,14.7
Nc1[nH]c(=S)c2c(N)n[nH]c2c1C(=O)Nc1ccccc1,> 100,> 100,> 100,> 100,> 100,> 100,> 100,> 100,> 100,> 100,> 100,> 100,> 100,> 100,> 100,> 100
Cn1c(Cl)cn2c3nc4ccccc4nc3c(=O)c(C#N)c12,> 100,> 100,> 100,> 100,> 100,> 100,> 100,> 100,> 100,> 100,98.8,> 100,> 100,> 100,> 67.8,> 100
CCOc1cc2c(cc1O)CC[C@@H]1[C@@H]2CC[C@]2(C)C(N)CC[C@@H]12 (stereo partly drawn),17.3,14.3,3.6,10,12.6,25.2,11.6,3.96,25.3,27,18.7,13.8,23.8,20.5,5.44,24.7
COc1ccc(C2=NN(C(N)=S)C(c3ccccc3)C2)cc1 (stereo not drawn),58.7,> 100,> 100,74.8,> 100,> 100,> 100,> 100,> 100,> 100,70.8,> 100,> 100,> 100,> 100,> 100
N#Cc1ccc(C(=O)/C=C/c2ccc(O)c(O)c2)cc1,30.5,26.2,30.7,25.2,27,32.8,29.8,28.5,31.2,29.6,31.9,30.1,31.1,28.9,28.2,37.6
O=P1(c2ccccc2)C(c2ccccc2)=CC=C1c1ccccc1,46.1,> 100,62.1,19.4,> 100,> 100,> 100,36.4,> 100,51.1,> 100,77.3,> 100,> 100,64.8,44
